# Reference: patent US4278686A, “Carbapenum derivatives, a process for their preparation and their use in pharmaceutical compositions and intermediates” (Beecham Group Limited, priority 1978, dated 1981)
# Read-outs that look alike come from different tables or passages of the source.
# Experiments:
# Format in all cases: cell-based
# Proteus mirabilis C977 = assay: minimum inhibitory concentration, Proteus mirabilis C977 (DST agar+10% horse blood)
# Method: (§1) The minimum inhibitory concentrations (MIC) of the compound (e54) was determined using a standard DST agar+10% horse blood substrate. The tests used an undiluted inoculum of bacteria. […]
# (§2) The minimum inhibitory concentrations (MIC) of this compound was determined using a standard DST agar+10% horse blood substrate.
# (§3) The minimum inhibitory concentrations (MIC) of this compound was determined using a standard DST agar+10% horse blood substrate. The tests used an undiluted inoculum of bacteria.
# E. coli ESS = assay: minimum inhibitory concentration, E. coli ESS (DST agar+10% horse blood); conditions: Escherichia coli
# Method: as §1, §2, §3
# [1] = system: Staphylococcus aureus Oxford; assay: minimum inhibitory concentration, Staphylococcus aureus Oxford (DST agar+10% horse blood)
# Method: as §1, §2, §3
# Bacillus subtilis A = assay: minimum inhibitory concentration, Bacillus subtilis A (DST agar+10% horse blood)
# Method: as §1, §2, §3
# [2] = system: Streptococcus pneumoniae CN33; assay: minimum inhibitory concentration, Streptococcus pneumoniae CN33 (DST agar+10% horse blood)
# Method: as §1, §2, §3
# Proteus vulgaris WO91 = assay: minimum inhibitory concentration, Proteus vulgaris WO91 (DST agar+10% horse blood)
# Method: as §1, §2, §3
# Serratia marcescens US20 = assay: minimum inhibitory concentration, Serratia marcescens US20 (DST agar+10% horse blood)
# Method: as §1, §2, §3
# Pseudomonas aeruginosa A = assay: minimum inhibitory concentration, Pseudomonas aeruginosa A (DST agar+10% horse blood)
# Method: as §1, §2, §3
# Citrobacter freundii E8 = assay: minimum inhibitory concentration, Citrobacter freundii E8 (DST agar+10% horse blood)
# Method: as §1, §2, §3
# [3] = system: Salmonella typhimurium CT10; assay: minimum inhibitory concentration, Salmonella typhimurium CT10 (DST agar+10% horse blood); conditions: Salmonella enterica
# Method: as §1, §2, §3
# Proteus morganii I580 = assay: minimum inhibitory concentration, Proteus morganii I580 (DST agar+10% horse blood); conditions: Morganella morganii
# Method: The minimum inhibitory concentrations (MIC) of the compound (e54) was determined using a standard DST agar+10% horse blood substrate. The tests used an undiluted inoculum of bacteria.
# Sodium (5R,6S)-3-(2-acetamidoethylthio)--6-ethyl-7-oxo-1-azabicyclo[3.2.0]-hept-2-ene-2-carboxylate [drawing 60] p-Methoxycarbonylbenzyl (5R,6S)-3-(2-acetamidoethylthio)-6-ethyl-7-oxo-1-azabicyclo[3.2.0]hept-2-ene-2-carboxylate (e58) (18 mg) was added to the cathodic compartment of an H-type divided two-compartment electrochemical cell, with a mercury cathode and a platinum anode. The cell contained degassed 0.1 M n-Bu4 NI in dimethylformamide as electrolyte. The volume of the catholyte was about 15 ml [glacial acetic acid (about 10 mg) added] and the volume of the anolyte was about 8 ml. A potentiostat was employed to fix the potential of the cathode at -1.9 V with respect to the standard calomel electrode, and the initial current, about 56 mA, fell to about 15 mA after about 15 min. The catholyte was removed from the cell and the solvent was evaporated in vacuo. The residue was taken up in CH2 Cl2 (10 ml) and washed with water (10 ml). The aqueous phase was separated and washed with CH2 Cl2. The aqueous phase, containing the tetrabutylammonium salt corresponding to (e63) was passed through an Amberlite IR 120 (Na form) column (17×1 cm) and the eluate was reduced to low volume by evaporation in vacuo. The residue was passed through a Biogel P-2 column, to yield fractions containing sodium (5R,6S)-3-(2-acetamidoethylthio)-6-ethyl-7-oxo-1-azabicyclo[3.2.0]hept-2-ene-2-carboxylate (e63) having λmax 298 nm. The minimum inhibitory concentrations (MIC) of this compound was determined using a standard DST agar+10% horse blood substrate.
# Sodium (5R,6S)-3-[(E)-2-acetamidoethenylthio]-6-ethyl-7-oxo-1-azabicyclo[3.2.0]hept-2-ene-2-carboxylate [drawing 68] p-Methoxycarbonylbenzyl (5R,6S)-3-[(E)-2-acetamidoethenylthio]-6-ethyl-7-oxo-1-azabicyclo[3.2.0]hept-2-ene-2-carboxylate (e72) (64 mg) in solution in 0.1 M (n-C4 H9)4 NBF4 in dry DMF was added to the cathodic compartment of a divided cylindrical electrochemical cell, with a mercury cathode and platinum anode. The volume of electrolyte in the cathodic compartment was about 25 ml, and in the anodic compartment about 10 ml. Acetic acid (12 mg) was added to the cathodic compartment and ethanol (250 mg) was added to the anodic compartment. The cell was degassed by passing argon for 30 min. The potentiostat was engaged to maintain the potential of the cathode at -1.9 V w.r.t. standard calomel electrode. The initial current (40 mA) fell to about 5 mA after 25 min. The solvent was removed from the catholyte by evaporation in vacuo and the residual oil was taken up in CH2 Cl2 (20 ml) and extracted with water (15 ml) containing sodium tetrafluoroborate (100 mg). The aqueous extract was washed with CH2 Cl2 and then passed down an Amberlite 1R 120 column (1×20 cm) in the sodium form. The volume of the eluate was reduced to about 5 ml by evaporation in vacuo and loaded onto a Biogel P-2 column (18×3 cm). Elution with water yielded fractions containing sodium (5R,6S)-3-[(E)-2-acetamidoethenylthio]-6-ethyl-7-oxo-1-azabicyclo[3.2.0]hept-2-ene-2-carboxylate (e73) λmax 308 nm. The minimum inhibitory concentrations (MIC) of this compound was determined using a standard DST agar+10% horse blood substrate.
# Sodium (5R,6R)-3-[(E)-2-acetamidoethenylthio]-6-(1-benzylthioethyl)-7-oxo-1-azabicyclo[3.2.0]hept-2-ene-2-carboxylate [drawing 87] The least polar crystalline isomer of the ester (e93) (40 mg) obtained in Example 70 was added to a mixture of 5% Pd on C (60 mg) in 20% aqueous dioxan (5 ml) which had been prehydrogenated for 0.5 h. Hydrogenation was continued for 4 h and the mixture was filtered through Celite after adding NaHCO3 (7 mg) and water (10 ml). The solution was concentrated to a volume of about 10 ml and was then washed with ethyl acetate (3×30 ml). […]
# Escherichia coli 0111 = assay: minimum inhibitory concentration, Escherichia coli 0111 (DST agar+10% horse blood)
# Method: as §1, §2, §3
# Enterobacter cloacae N1 = assay: minimum inhibitory concentration, Enterobacter cloacae N1 (DST agar+10% horse blood)
# Method: as §1, §2, §3
# Klebsiella aerogenes A = assay: minimum inhibitory concentration, Klebsiella aerogenes A (DST agar+10% horse blood)
# Method: as §1, §2, §3
# Proteus rettgeri WM16 = assay: minimum inhibitory concentration, Proteus rettgeri WM16 (DST agar+10% horse blood); conditions: Providencia rettgeri
# Method: as §1, §2, §3
# Escherichia coli JT 39 = assay: minimum inhibitory concentration, Escherichia coli JT 39 (DST agar+10% horse blood)
# Method: as §1, §2, §3
# [4] = system: Staphylococcus aureus Russell; assay: minimum inhibitory concentration, Staphylococcus aureus Russell (DST agar+10% horse blood)
# Method: as §1, §2, §3
# [5] = system: Staphylococcus aureus 1517; assay: minimum inhibitory concentration, Staphylococcus aureus 1517 (DST agar+10% horse blood)
# Method: as §1, §2, §3
# Shigella sonnei MB 11967 = assay: minimum inhibitory concentration, Shigella sonnei MB 11967 (DST agar+10% horse blood)
# Method: as §1, §2, §3
# Streptococcus faecalis I = assay: minimum inhibitory concentration, Streptococcus faecalis I (DST agar+10% horse blood); conditions: Enterococcus faecalis
# Method: as §1, §2, §3
# [6] = system: Streptococcus pyogenes CN10; assay: minimum inhibitory concentration, Streptococcus pyogenes CN10 (DST agar+10% horse blood)
# Method: as §1, §2, §3
# [7] = Proteus morganii I580, DST agar+10% horse blood, read-out: MIC
# [8] = Enterobacter cloacae, Enterobactor cloacae N1
structure (smiles),measurement,setting,value
"CC[C@@H]1C(=O)N2C(C(=O)[O-])=C(S/C=C/NC(C)=O)C[C@H]12.[Na+] [e73, sodium (5R,6S)-3-[(E)-2-acetamidoethenylthio]-6-ethyl-7-oxo-1-azabicyclo[3.2.0]hept-2-ene-2-carboxylate]",MIC,Proteus mirabilis C977,10 µg/mL
same,MIC,E. coli ESS,0.3 µg/mL
same,MIC,[1],0.6 µg/mL
same,MIC,Bacillus subtilis A,1.2 µg/mL
same,MIC,[2],≤ 0.1 µg/mL
same,MIC,Proteus vulgaris WO91,10 µg/mL
same,MIC,Serratia marcescens US20,5 µg/mL
same,MIC,Pseudomonas aeruginosa A,> 40 µg/mL
same,MIC,Citrobacter freundii E8,2.5 µg/mL
same,MIC,[3],1.2 µg/mL
same,MIC,Proteus morganii I580; [7],5 µg/mL
same,MIC,Escherichia coli 0111,2.5 µg/mL
same,MIC,Enterobacter cloacae N1; [8],2.5 µg/mL
same,MIC,Klebsiella aerogenes A,2.5 µg/mL
same,MIC,Proteus rettgeri WM16,10 µg/mL
same,MIC,Escherichia coli JT 39; JT39,10 µg/mL
same,MIC,[4],2.5 µg/mL
same,MIC,[5],> 40 µg/mL
same,MIC,Shigella sonnei MB 11967; MB11967,2.5 µg/mL
same,MIC,Streptococcus faecalis I,40 µg/mL
"CC(=O)N/C=C/SC1=C(C(=O)[O-])N2C(=O)[C@H](C(C)SCCNC(C)=O)[C@H]2C1.[Na+] (stereo partly drawn) [e98, Sodium (5R,6R)-3-[(E)-2-acetamidoethenylthio]-6-[1-(2-acetamidoethylthio)ethyl]-7-oxo-1-azabicyclo[3.2.0]hept-2-ene-2-carboxylate]",MIC,Proteus mirabilis C977,12.5 µg/mL
same,MIC,E. coli ESS,1.2 µg/mL
same,MIC,[1],1.2 µg/mL
same,MIC,Bacillus subtilis A,2.5 µg/mL
same,MIC,[2],0.2 µg/mL
same,MIC,Proteus vulgaris WO91,12.5 µg/mL
same,MIC,Serratia marcescens US20,12.5 µg/mL
same,MIC,Pseudomonas aeruginosa A,> 50 µg/mL
same,MIC,Citrobacter freundii E8,5 µg/mL
same,MIC,[3],2.5 µg/mL
same,MIC,Proteus morganii I580; I580,25 µg/mL
same,MIC,Escherichia coli 0111,5 µg/mL
same,MIC,Enterobacter cloacae N1; [8],5 µg/mL
same,MIC,Klebsiella aerogenes A,5 µg/mL
same,MIC,Proteus rettgeri WM16,12.5 µg/mL
same,MIC,Escherichia coli JT 39; JT39,5 µg/mL
same,MIC,[4],2.5 µg/mL
same,MIC,[5],12.5 µg/mL
same,MIC,Shigella sonnei MB 11967; MB11967,5 µg/mL
same,MIC,[6],0.5 µg/mL
same,MIC,Streptococcus faecalis I,50 µg/mL
"CC[C@H]1C(=O)N2C(C(=O)[O-])=C(S/C=C/NC(C)=O)C[C@H]12.[Na+] [e54, sodium (5R,6R)-3-[(E)-2-acetamidoethenylthio]-6-ethyl-7-oxo-1-azabicyclo[3.2.0]hept-2-ene-2-carboxylate]",MIC,Proteus mirabilis C977; undiluted inoculum,25 µg/mL
same,MIC,E. coli ESS; undiluted inoculum,0.4 µg/mL
same,MIC,[1]; undiluted inoculum,0.4 µg/mL
same,MIC,Bacillus subtilis A; undiluted inoculum,0.8 µg/mL
same,MIC,[2]; undiluted inoculum,0.1 µg/mL
same,MIC,Proteus vulgaris WO91; undiluted inoculum,25 µg/mL
same,MIC,Serratia marcescens US20; undiluted inoculum,12.5 µg/mL
same,MIC,Pseudomonas aeruginosa A; undiluted inoculum,> 50 µg/mL
same,MIC,Citrobacter freundii E8; undiluted inoculum,12.5 µg/mL
same,MIC,[3]; undiluted inoculum,3.1 µg/mL
same,MIC,"Proteus morganii I580; Proteus morganii I580, DST agar+10% horse blood, undiluted inoculum, read-out: MIC",25 µg/mL
same,MIC,Escherichia coli 0111; undiluted inoculum,3.1 µg/mL
same,MIC,"Enterobacter cloacae N1; Enterobacter cloacae N1, undiluted inoculum",25 µg/mL
same,MIC,Klebsiella aerogenes A; undiluted inoculum,3.1 µg/mL
same,MIC,Proteus rettgeri WM16; undiluted inoculum,25 µg/mL
same,MIC,"Escherichia coli JT 39; JT39, undiluted inoculum",3.1 µg/mL
same,MIC,[4]; undiluted inoculum,0.4 µg/mL
same,MIC,[5]; undiluted inoculum,12.5 µg/mL
same,MIC,"Shigella sonnei MB 11967; MB11967, undiluted inoculum",3.1 µg/mL
same,MIC,[6]; undiluted inoculum,0.2 µg/mL
same,MIC,Streptococcus faecalis I; undiluted inoculum,25 µg/mL
"CC[C@@H]1C(=O)N2C(C(=O)[O-])=C(SCCNC(C)=O)C[C@H]12.[Na+] [e63, sodium (5R,6S)-3-(2-acetamidoethylthio)-6-ethyl-7-oxo-1-azabicyclo[3.2.0]hept-2-ene-2-carboxylate]",MIC,Proteus mirabilis C977,10 µg/mL
same,MIC,E. coli ESS,1.2 µg/mL
same,MIC,[1],0.6 µg/mL
same,MIC,Proteus vulgaris WO91,5 µg/mL
same,MIC,Serratia marcescens US20,10 µg/mL
same,MIC,Pseudomonas aeruginosa A,> 40 µg/mL
same,MIC,Citrobacter freundii E8,2.5 µg/mL
same,MIC,[3],2.5 µg/mL
same,MIC,Proteus morganii I580; [7],40 µg/mL
same,MIC,Escherichia coli 0111,2.5 µg/mL
same,MIC,Enterobacter cloacae N1; [8],20 µg/mL
same,MIC,Klebsiella aerogenes A,1.2 µg/mL
same,MIC,Proteus rettgeri WM16,10 µg/mL
same,MIC,Escherichia coli JT 39; JT39,10 µg/mL
same,MIC,[4],0.6 µg/mL
same,MIC,[5],10 µg/mL
same,MIC,Shigella sonnei MB 11967; MB11967,2.5 µg/mL
same,MIC,[6],0.1 µg/mL
same,MIC,Streptococcus faecalis I,40 µg/mL
"C=CCSC(C)[C@H]1C(=O)N2C(C(=O)[O-])=C(S/C=C/NC(C)=O)C[C@H]12.[Na+] (stereo partly drawn) [e96, Sodium (5R,6R)-3-[(E)-2-acetamidoethenylthio]-6-(1-allylthioethyl)-7-oxo-1-azabicyclo[3.2.0]hept-2-ene-2-carboxylate]",MIC,Proteus mirabilis C977,100 µg/mL
same,MIC,E. coli ESS,1.6 µg/mL
same,MIC,[1],0.8 µg/mL
same,MIC,Bacillus subtilis A,1.6 µg/mL
same,MIC,[2],≤ 0.2 µg/mL
same,MIC,Proteus vulgaris WO91,25 µg/mL
same,MIC,Serratia marcescens US20,50 µg/mL
same,MIC,Pseudomonas aeruginosa A,> 100 µg/mL
same,MIC,Citrobacter freundii E8,50 µg/mL
same,MIC,[3],25 µg/mL
same,MIC,Proteus morganii I580; I580,50 µg/mL
same,MIC,Escherichia coli 0111,50 µg/mL
same,MIC,Enterobacter cloacae N1; [8],25 µg/mL
same,MIC,Klebsiella aerogenes A,6.2 µg/mL
same,MIC,Proteus rettgeri WM16,50 µg/mL
same,MIC,Escherichia coli JT 39; JT39,25 µg/mL
same,MIC,[4],1.6 µg/mL
same,MIC,[5],12.5 µg/mL
same,MIC,Shigella sonnei MB 11967; MB11967,25 µg/mL
same,MIC,[6],0.4 µg/mL
same,MIC,Streptococcus faecalis I,50 µg/mL
